According to patent publication US5693492A, “DNA encoding glutamate gated chloride channels” (priority 1995, dated 1997):

Molecular target: T1, Dros GluCl (Drosophila melanogaster, UniProt Q94900, I27V/K241R)
T1 construct: Clone pDros GluCl was linearized by digestion with the restriction endonuclease SalI; expressed in transfected cells; host or cells: Xenopus laevis oocytes injected with in vitro transcribed Dros GluCl RNA
Experiment: cell-based
Conditions: for Reversibility of activated current (in words): after washing drug from the bath, IVMPO4 observed for up to 10 minutes; for Sensitivity of oocytes injected with Dros GluCl RNA (in words): tested at concentrations of 1 mM or higher
Procedure: Clone pDros GluCl was linearized by digestion with the restriction endonuclease SalI. In vitro RNA was synthesized from 0.5 μg of this plasmid in a reaction containing 40 mM Tris-HCl, pH 7.5; 6 mM MgCl2; 2 mM Spermidine; 10 mM NaCl; 10 mM DTT; 0.05 mg/ml Bovine Serum Albumin; 2 units/ul RNasin; 800 μM each ATP, CTP, and UTP; 200 μMGTP; 800 μM m7G(5')ppp(5')G; 5 μCi ^32 P-CTp; and 50 units T3 RNA polymerase in a final volume of 50 μl. The reaction was incubated for 3 hours at 37° C. followed by an additional 15 minutes incubation with 20 units RNase free DNase and extraction with phenol, phenol:chloroform, and chloroform. The RNA was precipitated with 1/10 volume 3M sodium acetate and 2.5 volumes 100% ethanol, stored at -20° C. for 16 hours, washed with 70% ethanol and resuspended in water at a concentration of 1 mg/ml for injection into Xenopus laevis oocytes.
Xenopus laevis oocytes were prepared and injected using standard methods previously described and known in the art [Arena, J. P., Liu, K. K., Paress, P. S. & Cully, D. F. Mol. Pharmacol. 40, 368-374 (1991); Arena, J. P., Liu, K. K., Paress, P. S., Schaeffer, J. M. & Cully, D. F. Mol. Brain Res. 15, 339-348 (1992)]. Adult female Xenopus laevis were anesthetized with 0.17% tricaine methanesulfonate and the ovaries were surgically removed and placed in a dish consisting of (mM): NaCl 82.5, KCl 2, MgCl2 1, CaCl2 1.8, HEPES 5 adjusted to pH 7.5 with NaOH (OR-2). Ovarian lobes were broken open, rinsed several times, and gently shaken in OR-2 containing 0.2% collagenase (Sigma, Type 1A) for 2-5 hours. When approximately 50% of the follicular layers were removed, Stage V and VI oocytes were selected and placed in media consisting of (mM): NaCl 86, KCl 2, MgCl2 1, CaCl2 1.8, HEPES 5, Na pyruvate 2.5, theophylline 0.5, gentamicin 0.1 adjusted to pH 7.5 with NaOH (ND-96) for 24-48 hours before injection. Oocytes were injected with 50 nl of Dros GluCl RNA (0.01-1 mg/ml). Control oocytes were injected with 50 nl of water. Oocytes were incubated for 2-10 days in ND-96 before recording. Incubations and collagenase digestion were carried out at 18° C.
Recordings were made at room temperature in standard frog saline consisting of (mM): NaCl 115, KCl 2, MgCl2 1, CaCl2 1.8, HEPES 10, adjusted to pH 7.5 with NaOH. Oocytes were voltage-clamped using a standard two microelectrode amplifier (Dagan 8500 or TEV-200, Minneapolis, Minn.). Pipettes were filled with 3M KCl and had resistances between 0.5-3.0 megaohms. A plexiglass recording chamber (volume 200 μl) was constantly perfused at a rate of 10 ml/min. The recording chamber was connected to ground with a Ag/AgCl electrode. Data were acquired and analyzed using PCLAMP with a TL-1 interface (Axon Instruments, Foster City, Calif.). Membrane current at a holding potential of -80 mV was recorded. The amplitude of drug-sensitive current was determined by subtracting the holding current at -80 mV from the peak current obtained in the presence of drug. Data were filtered at 30 Hz and sampled at 16.6 Hz. Current/voltage relationships (I/V) and reversal potentials (Erev) were determined using a 1-3 sec voltage ramp over the voltage range of -110 to +80 mV. For the ramps, data were filtered at 0.3-3 kHz and sampled at 160 Hz. Current in drug free solution was subtracted from current in the presence of drug to obtain drug-sensitive current/voltage relationships.

T1 sequence (Q94900 23-456 I27V/K241R/S345N): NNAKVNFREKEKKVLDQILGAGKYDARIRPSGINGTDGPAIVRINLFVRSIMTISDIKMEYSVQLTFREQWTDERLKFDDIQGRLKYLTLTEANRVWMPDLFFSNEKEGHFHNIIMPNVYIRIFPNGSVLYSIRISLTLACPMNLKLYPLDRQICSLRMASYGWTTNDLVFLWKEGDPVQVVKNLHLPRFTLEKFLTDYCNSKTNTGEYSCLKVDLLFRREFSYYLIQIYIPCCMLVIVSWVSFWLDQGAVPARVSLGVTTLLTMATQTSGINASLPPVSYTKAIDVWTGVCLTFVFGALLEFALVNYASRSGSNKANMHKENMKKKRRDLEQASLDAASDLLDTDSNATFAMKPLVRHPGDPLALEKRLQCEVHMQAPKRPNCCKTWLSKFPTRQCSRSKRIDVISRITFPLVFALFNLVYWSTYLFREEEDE

Question: For `C=C(C)C1C(=O)c2c3c(cc4c5c(n1c24)C1(C)C(CCC2C(C)(/C=C/C=C(\C)C(=O)O)C(O)CCC21C)C5)C1=CC(C)(C)OC(C)(C)C1C3O` (centres unmarked) [Compound-1], which “Time for current to fully return to baseline” value (after Compound-1, oocytes expressing Dros GluCl) is on record?
Answer: The value was “up to 10 minutes”.

Question: What about the “Reversibility of activated current (in words)” value of the same compound?
Answer: Its value is “slowly reversible”.

Question: And the “Activation of membrane current (in words)” value (oocytes expressing Dros GluCl)?
Answer: Its value is “directly activated membrane current”.

Question: For `NCCCC(=O)O` [GABA], which “Sensitivity of oocytes injected with Dros GluCl RNA (in words)” value (“Sensitivity of oocytes injected” for short) is on record?
Answer: The value was “insensitive”.

Question: With `CC[C@H](C)[C@H]1O[C@]2(CC[C@@H]1C)C[C@@H]1C[C@@H](C/C=C(\C)[C@H](O[C@H]3C[C@H](OC)[C@@H](O[C@H]4C[C@H](OC)[C@@H](OP(=O)(O)O)[C@H](C)O4)[C@H](C)O3)[C@@H](C)/C=C/C=C3\CO[C@@H]4[C@H](O)C(C)=C[C@@H](C(=O)O1)[C@]34O)O2` [IVMPO4] as the compound, how does the “Current activated, % of maximal current” value (10 nM IVMPO4, oocytes expressing Dros GluCl) read?
Answer: Its value is 20-40%.

Question: And the “Reversibility of activated current (in words)” value?
Answer: The value was “irreversible”.

Question: What about the “Activation of membrane current (in words)” value (oocytes expressing Dros GluCl) of the same compound?
Answer: Its value is “directly activated current”.

Question: What about the “Concentration giving maximal activation of current” value (oocytes expressing Dros GluCl) of the same compound?
Answer: Its value is 1 µM.

Question: For `CN[C@H](CC(=O)O)C(=O)O` [N-methyl-D-aspartic acid], which “Sensitivity of oocytes injected” value is on record?
Answer: Its value is “insensitive”.

Question: With `N[C@@H](CC(=O)O)C(=O)O` [aspartate] as the compound, how does the Emax at 1000 µM (read-out: % of maximal activation) read?
Answer: The Emax at 1000 µM was 8%.

Question: How did the EC50 turn out when `N[C@@H](CCC(=O)O)C(=O)O` [glutamate] was run?
Answer: The EC50 was 30 µM.

Question: `NCC(=O)O` [glycine] was tested. Which “Sensitivity of oocytes injected” value did it give?
Answer: The value was “insensitive”.

Question: With `NCCc1c[nH]cn1` [histamine] as the compound, how does the “Sensitivity of oocytes injected” value read?
Answer: Its value is “insensitive”.

Question: What does the source list for `NC(C(=O)O)c1cc(O)no1` (centres unmarked) [ibotenate]?
Answer: Activation of membrane current (in words) (oocytes expressing Dros GluCl): reversibly activated; Concentration giving maximal activation of current (oocytes expressing Dros GluCl): 100 µM

Question: Which “Sensitivity of oocytes injected” value does the source give for `C=C(C)[C@H]1CN[C@H](C(=O)O)[C@H]1CC(=O)O` [kainate] here?
Answer: Its value is “insensitive”.

Question: Which “Block of the current elicited with IVMPO4” value (500 μM picrotoxin, oocytes expressing Dros GluCl) does the source give for picrotoxin here?
Answer: Its value is 13%.
